Data from patent publication US9630922B2, “3-spiro-7-hydroxamic acid tetralins as HDAC inhibitors” (Forma Therapeutics, Inc., priority 2015, dated 2017).

biological target: T1, HDAC6 (Homo sapiens, UniProt Q9UBN7); test: In vitro Histone Deacetylase Assay (enzymatic HDAC6 electrophoretic mobility shift assay); assay type: biochemical; conditions: full length human recombinant HDAC6, 1 nM enzyme, 2 μM peptide substrate RHKK(Ac)-NH2, 25° C.; read-out: HDAC6 activity range
T1 construct: Full length human recombinant HDAC6 protein was expressed in baculoviral system; made in house; host or cells: baculoviral system
T1 sequence (Q9UBN7 1-1215): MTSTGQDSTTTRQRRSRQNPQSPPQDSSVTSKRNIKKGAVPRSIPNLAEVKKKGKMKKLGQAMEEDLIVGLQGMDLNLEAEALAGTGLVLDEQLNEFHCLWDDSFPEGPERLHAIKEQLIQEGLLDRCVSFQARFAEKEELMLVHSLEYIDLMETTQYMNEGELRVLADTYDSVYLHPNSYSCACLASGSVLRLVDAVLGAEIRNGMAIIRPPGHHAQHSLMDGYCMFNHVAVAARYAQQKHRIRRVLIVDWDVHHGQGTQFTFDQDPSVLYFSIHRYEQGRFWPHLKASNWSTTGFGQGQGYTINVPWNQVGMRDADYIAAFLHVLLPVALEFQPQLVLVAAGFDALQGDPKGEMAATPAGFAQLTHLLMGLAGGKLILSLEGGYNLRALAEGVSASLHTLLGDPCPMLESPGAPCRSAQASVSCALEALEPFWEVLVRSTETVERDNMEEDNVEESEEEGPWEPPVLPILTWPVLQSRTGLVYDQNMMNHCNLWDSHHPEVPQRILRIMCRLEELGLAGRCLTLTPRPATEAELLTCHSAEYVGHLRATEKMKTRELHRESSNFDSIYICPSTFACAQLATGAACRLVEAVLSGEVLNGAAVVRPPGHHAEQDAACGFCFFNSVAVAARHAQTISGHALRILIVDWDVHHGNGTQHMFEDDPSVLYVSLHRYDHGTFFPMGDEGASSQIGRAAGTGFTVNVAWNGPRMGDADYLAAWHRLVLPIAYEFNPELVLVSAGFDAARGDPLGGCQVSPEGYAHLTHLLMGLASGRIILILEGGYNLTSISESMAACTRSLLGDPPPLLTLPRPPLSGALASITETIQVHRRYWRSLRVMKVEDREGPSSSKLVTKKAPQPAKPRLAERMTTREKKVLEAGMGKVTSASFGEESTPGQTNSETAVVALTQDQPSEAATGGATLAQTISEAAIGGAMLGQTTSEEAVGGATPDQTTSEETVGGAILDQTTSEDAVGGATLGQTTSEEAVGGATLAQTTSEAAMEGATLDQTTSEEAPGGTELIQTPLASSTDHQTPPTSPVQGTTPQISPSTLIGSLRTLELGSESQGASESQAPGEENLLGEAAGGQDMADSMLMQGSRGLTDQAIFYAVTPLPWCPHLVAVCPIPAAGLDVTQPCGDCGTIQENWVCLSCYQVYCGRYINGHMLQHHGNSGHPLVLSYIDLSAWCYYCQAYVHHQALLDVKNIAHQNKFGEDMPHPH
In short: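 Full-length recombinant human HDAC6 (baculovirus-expressed, 1 nM) was incubated at 25 °C with 2 μM fluorescent RHKK(Ac)-NH2 peptide in HEPES pH 7.5, KCl, BSA, Triton X-100 and 1% DMSO, then SDS-quenched. Substrate and product were separated by microfluidic mobility shift, and IC50 came from 4-parameter fits of 12-point, 3-fold dilution curves.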

Row | IC50 [nM] | Structure (SMILES)
1 | ≤ 100 | C=C(C)CN1CC[C@]2(CCc3cc(C(=O)NO)ccc3C2)C1=O [Compound I-47, (R)-N-hydroxy-1′-(2-methylallyl)-2′-oxo-3,4-dihydro-1H-spiro[naphthalene-2,3′-pyrrolidine]-6-carboxamide]
2 | ≤ 100 | O=C(NO)c1ccc2c(c1)CC[C@]1(CCN(Cc3cc(Cl)ccc3Cl)C1=O)C2 [Compound I-48, (R)-1′-(2,5-dichlorobenzyl)-N-hydroxy-2′-oxo-3,4-dihydro-1H-spiro[naphthalene-2,3′-pyrrolidine]-6-carboxamide]
3 | ≤ 100 | O=C(NO)c1ccc2c(c1)CC[C@]1(CCN(Cc3c(Cl)cccc3Cl)C1=O)C2 [Compound I-49, (R)-1′-(2,6-dichlorobenzyl)-N-hydroxy-2′-oxo-3,4-dihydro-1H-spiro[naphthalene-2,3′-pyrrolidine]-6-carboxamide]
4 | ≤ 100 | O=C(NO)c1ccc2c(c1)CC[C@]1(CCN(Cc3ccccc3)C1=O)C2 [Compound I-50, (R)-1′-benzyl-N-hydroxy-2′-oxo-3,4-dihydro-1H-spiro[naphthalene-2,3′-pyrrolidine]-6-carboxamide]
5 | ≤ 100 | COc1cccc(CN2CC[C@]3(CCc4cc(C(=O)NO)ccc4C3)C2=O)c1 [Compound I-51, (R)-N-hydroxy-1′-(3-methoxybenzyl)-2′-oxo-3,4-dihydro-1H-spiro[naphthalene-2,3′-pyrrolidine]-6-carboxamide]
6 | ≤ 100 | O=C(NO)c1ccc2c(c1)CC[C@]1(CCN(Cc3ccccn3)C1=O)C2 [Compound I-52, (R)-N-hydroxy-2′-oxo-1′-(pyridin-2-ylmethyl)-3,4-dihydro-1H-spiro[naphthalene-2,3′-pyrrolidine]-6-carboxamide]
7 | ≤ 100 | O=C(NO)c1ccc2c(c1)CC[C@]1(CCN(Cc3cccc(F)c3)C1=O)C2 [Compound I-53, (R)-1′-(3-fluorobenzyl)-N-hydroxy-2′-oxo-3,4-dihydro-1H-spiro[naphthalene-2,3′-pyrrolidine]-6-carboxamide]
8 | ≤ 100 | O=C(NO)c1ccc2c(c1)CC[C@]1(CCN(Cc3cccc(Cl)c3)C1=O)C2 [Compound I-54, (R)-1′-(3-chlorobenzyl)-N-hydroxy-2′-oxo-3,4-dihydro-1H-spiro[napthalene-2,3′-pyrrolidine]-6-carboxamide]
9 | ≤ 100 | O=C(NO)c1ccc2c(c1)CC[C@]1(CCN(Cc3ccc(Cl)cc3)C1=O)C2 [Compound I-55, (R)-1′-(4-chlorobenzyl)-N-hydroxy-2′-oxo-3,4-dihydro-1H-spiro[naphthalene-2,3′-pyrrolidine]-6-carboxamide]
10 | ≤ 100 | COc1ccc(CN2CC[C@]3(CCc4cc(C(=O)NO)ccc4C3)C2=O)cc1 [Compound I-56, (R)-N-hydroxy-1′-(4-methoxybenzyl)-2′-oxo-3,4-dihydro-1H-spiro[naphthalene-2,3′-pyrrolidine]-6-carboxamide]
11 | ≤ 100 | O=C(NO)c1ccc2c(c1)CC[C@]1(CCN(Cc3ccccc3F)C1=O)C2 [Compound I-57, (R)-1′-(2-fluorobenzyl)-N-hydroxy-2′-oxo-3,4-dihydro-1H-spiro[naphthalene-2,3′-pyrrolidine]-6-carboxamide]
12 | ≤ 100 | O=C(NO)c1ccc2c(c1)CC[C@]1(CCN(Cc3ccc4ccccc4c3)C1=O)C2 [Compound I-58, (R)-N-hydroxy-1′-(naphthalen-2-ylmethyl)-2′-oxo-3,4-dihydro-1H-spiro[naphthalene-2,3′-pyrrolidine]-6-carboxamide]
13 | ≤ 100 | O=C(NO)c1ccc2c(c1)CC[C@]1(CCN(Cc3ccccc3OC(F)F)C1=O)C2 [Compound I-59, (R)-1′-(2-(difluoromethoxy)benzyl)-N-hydroxy-2′-oxo-3,4-dihydro-1H-spiro[naphthalene-2,3′-pyrrolidine]-6-carboxamide]
14 | 100 to 500 | CCCN1CC[C@@]2(CCc3cc(C(=O)NO)ccc3C2)C1=O [Compound I-60, (S)-N-hydroxy-2′-oxo-1′-propyl-3,4-dihydro-1H-spiro[naphthalene-2,3′-pyrrolidine]-6-carboxamide]
15 | 100 to 500 | O=C(NO)c1ccc2c(c1)CC[C@@]1(CCN(CC3CCC3)C1=O)C2 [Compound I-61, (S)-1′-(cyclobutylmethyl)-N-hydroxy-2′-oxo-3,4-dihydro-1H-spiro[naphthalene-2,3′-pyrrolidine]-6-carboxamide]
16 | 100 to 500 | CC(C)CCN1CC[C@@]2(CCc3cc(C(=O)NO)ccc3C2)C1=O [Compound I-62, (S)-N-hydroxy-1′-isopentyl-2′-oxo-3,4-dihydro-1H-spiro[naphthalene-2,3′-pyrrolidine]-6-carboxamide]
17 | ≤ 100 | CC#CCN1CC[C@@]2(CCc3cc(C(=O)NO)ccc3C2)C1=O [Compound I-63, (S)-1′-(but-2-yn-1-yl)-N-hydroxy-2′-oxo-3,4-dihydro-1H-spiro[naphthalene-2,3′-pyrrolidine]-6-carboxamide]
18 | 100 to 500 | COCCN1CC[C@@]2(CCc3cc(C(=O)NO)ccc3C2)C1=O [Compound I-64, (S)-N-hydroxy-1′-(2-methoxyethyl)-2′-oxo-3,4-dihydro-1H-spiro[naphthalene-2,3′-pyrrolidine]-6-carboxamide]
19 | ≤ 100 | O=C(NO)c1ccc2c(c1)CC[C@@]1(CCN(C/C=C/c3ccccc3)C1=O)C2 [Compound I-65, (S)-1′-cinnamyl-N-hydroxy-2′-oxo-3,4-dihydro-1H-spiro[naphthalene-2,3′-pyrrolidine]-6-carboxamide]
20 | ≤ 100 | Cc1ccccc1CN1CC[C@@]2(CCc3cc(C(=O)NO)ccc3C2)C1=O [Compound I-66, (S)-N-hydroxy-1′-(2-methylbenzyl)-2′-oxo-3,4-dihydro-1H-spiro[naphthalene-2,3′-pyrrolidine]-6-carboxamide]
21 | 100 to 500 | O=C(NO)c1ccc2c(c1)CC[C@@]1(CCN(Cc3ccccc3C(F)(F)F)C1=O)C2 [Compound I-67, (S)-N-hydroxy-2′-oxo-1′-(2-(trifluoromethyl)benzyl)-3,4-dihydro-1H-spiro[naphthalene-2,3′-pyrrolidine]-6-carboxamide]
22 | 100 to 500 | O=C(NO)c1ccc2c(c1)CC[C@@]1(CCN(Cc3ccccc3Cl)C1=O)C2 [Compound I-68, (S)-1′-(2-chlorobenzyl)-N-hydroxy-2′-oxo-3,4-dihydro-1H-spiro[naphthalene-2,3′-pyrrolidine]-6-carboxamide]
23 | 100 to 500 | O=C(NO)c1ccc2c(c1)CC[C@@]1(CCN(Cc3ccccc3OC(F)(F)F)C1=O)C2 [Compound I-69, (S)-N-hydroxy-2′-oxo-1′-(2-(trifluoromethoxy)benzyl)-3,4-dihydro-1H-spiro[naphthalene-2,3′-pyrrolidine]-6-carboxamide]
24 | ≤ 100 | O=C(NO)c1ccc2c(c1)CC[C@@]1(CCN(Cc3ccc4nonc4c3)C1=O)C2 [Compound I-70, (S)-1′-(benzo[c][1,2,5]oxadiazol-5-ylmethyl)-N-hydroxy-2′-oxo-3,4-dihydro-1H-spiro[naphthalene-2,3′-pyrrolidine]-6-carboxamide]
25 | 100 to 500 | O=C(NO)c1ccc2c(c1)CC[C@@]1(CCN(CC(=O)N3CCOCC3)C1=O)C2 [Compound I-71, (S)-N-hydroxy-1′-(2-morpholino-2-oxoethyl)-2′-oxo-3,4-dihydro-1H-spiro[naphthalene-2,3′-pyrrolidine]-6-carboxamide]
26 | ≤ 100 | COc1ccccc1CN1CC[C@@]2(CCc3cc(C(=O)NO)ccc3C2)C1=O [Compound I-72, (S)-N-hydroxy-1′-(2-methoxybenzyl)-2′-oxo-3,4-dihydro-1H-spiro[naphthalene-2,3′-pyrrolidine]-6-carboxamide]
27 | ≤ 100 | CC(C)n1c(CN2CC[C@@]3(CCc4cc(C(=O)NO)ccc4C3)C2=O)nc2ccccc21 [Compound I-73, (S)-N-hydroxy-1′-((1-isopropyl-1H-benzo[d]imidazol-2-yl)methyl)-2′-oxo-3,4-dihydro-1H-spiro[naphthalene-2,3′-pyrrolidine]-6-carboxamide]
